Measured values: patent US10065941B2, “Aminotriazine derivative and pharmaceutical composition comprising the same” (Shionogi & Co., Ltd., priority 2013, dated 2018)

Biological target: human P2X3 receptor (Homo sapiens (Human), UniProt P56373)
Experiment: Evaluation of human P2X3 receptor inhibitory activity (Test Example 1)
Assay type: cell-based
Conditions: C6BU-1 cell transfected with human P2X3 receptor gene, FLIPR 384
How it was run: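 C6BU-1 cells stably expressing human P2X3, loaded with 4 μM Fluo-3-AM 1 h at 37 °C, preincubated 5 min with test compound, then stimulated with 150 nM ATP solution (stock, pre-dispense) and monitored by FLIPR for 4 min. IC50 derived from maximum fluorescence ratio (post-ATP peak over baseline).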

Chain of human P2X3 receptor (P56373 whole entry): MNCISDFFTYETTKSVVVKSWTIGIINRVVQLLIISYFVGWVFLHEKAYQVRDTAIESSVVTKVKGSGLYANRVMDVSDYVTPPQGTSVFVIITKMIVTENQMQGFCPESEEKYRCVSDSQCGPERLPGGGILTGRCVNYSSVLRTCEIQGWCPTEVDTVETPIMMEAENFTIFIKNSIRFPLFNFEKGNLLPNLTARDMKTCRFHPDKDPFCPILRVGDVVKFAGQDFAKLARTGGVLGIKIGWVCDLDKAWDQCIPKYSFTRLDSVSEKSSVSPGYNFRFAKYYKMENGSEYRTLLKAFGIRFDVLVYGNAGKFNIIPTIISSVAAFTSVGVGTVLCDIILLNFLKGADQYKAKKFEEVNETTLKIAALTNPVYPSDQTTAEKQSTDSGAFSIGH

COC(=O)[C@@H](C)Cn1c(=O)[nH]/c(=N\c2ccc(Oc3ccc(F)cn3)cc2)n(CC2CCC3(CC2)CC3)c1=O [Compound I-237]
IC50: 14 nM

Cc1nc(Oc2ccc(/N=c3\[nH]c(=O)n(C[C@H](C)C(=O)O)c(=O)n3Cc3ccc(Cl)cc3)cc2)no1 [Compound R-114]
IC50: 39 nM

COC(=O)CCn1c(=O)[nH]/c(=N\c2ccc(Oc3ccccn3)cc2)n(Cc2ccc(C)cc2)c1=O [Compound R-226]
IC50: 3 nM

COc1cc(Oc2ccc(/N=c3\[nH]c(=O)n(C[C@H](C)C(=O)O)c(=O)n3Cc3ccc(Cl)cc3)cc2)ncn1 [Compound R-050]
IC50: 14 nM

COC(=O)[C@H](C)[C@H](C)n1c(=O)[nH]/c(=N\c2ccc(Oc3ccccn3)cc2)n(Cc2ccc(Cl)cc2)c1=O [Compound I-144]
IC50: 9 nM

C[C@@H](Cn1c(=O)[nH]/c(=N\c2ccc(Oc3ncccn3)cc2)n(Cc2ccc(Cl)cc2)c1=O)C(=O)O [Compound R-078]
IC50: 10 nM

COC(=O)C(C)(C)Cn1c(=O)[nH]/c(=N\c2ccc(Oc3ccccn3)cc2)n(Cc2ccc(C)cc2)c1=O [Compound I-150]
IC50: 4 nM

Cc1ccc(Cn2c(=O)n(C[C@H](C)C(=O)O)c(=O)[nH]/c2=N\c2ccc(Oc3ncc(C)s3)cc2)cc1 [Compound R-218]
IC50: 6 nM

CC(C)(Cn1c(=O)[nH]/c(=N\c2ccc(Oc3cnccn3)c(F)c2)n(Cc2ccc(Cl)cc2)c1=O)C(=O)O [Compound R-056]
IC50: 10 nM

C[C@@H](Cn1c(=O)[nH]/c(=N\c2ccc(Oc3cccc(F)n3)cc2)n(CC2CCC3(CC2)CC3)c1=O)C(=O)O [Compound I-234]
IC50: 7 nM

C[C@@H](C(=O)O)[C@H](C)n1c(=O)[nH]/c(=N\c2ccc(Oc3cc(F)nc(F)c3)cc2)n(Cc2ccc(Cl)cc2)c1=O [Compound R-157]
IC50: 6 nM

Cc1cnc(Oc2ccc(/N=c3\[nH]c(=O)n(C[C@H](C)C(=O)O)c(=O)n3Cc3ccc(Cl)cc3)cc2)s1 [Compound R-133]
IC50: 6 nM

Cc1ccc(Oc2ccc(/N=c3\[nH]c(=O)n(C[C@H](C)C(=O)O)c(=O)n3Cc3ccc(Cl)cc3)cc2F)nn1 [Compound R-180]
IC50: 7 nM

COC(=O)C(C)(C)Cn1c(=O)[nH]/c(=N\c2ccc(Oc3ccc(Cl)cn3)cc2)n(Cc2ccc(C)cc2)c1=O [Compound I-098]
IC50: 7 nM

COC(=O)[C@H](C)[C@H](C)n1c(=O)[nH]/c(=N\c2ccc(Oc3cnccn3)c(F)c2)n(Cc2ccc(Cl)cc2)c1=O [Compound R-122]
IC50: 13 nM

C[C@@H](C(=O)O)[C@H](C)n1c(=O)[nH]/c(=N\c2ccc(Oc3cnc(Cl)cn3)cc2)n(Cc2ccc(Cl)cc2)c1=O [Compound R-162]
IC50: 6 nM

C[C@@H](Cn1c(=O)[nH]/c(=N\c2ccc(Oc3ccccn3)cc2)n(CC2CCC3(CC2)CC3)c1=O)C(=O)O [Compound I-202]
IC50: 8 nM

C[C@@H](C(=O)O)[C@H](C)n1c(=O)[nH]/c(=N\c2ccc(Oc3cnc(C#N)nc3)cc2)n(Cc2ccc(Cl)cc2)c1=O [Compound R-249]
IC50: 6 nM

CCc1oc2ccc(/N=c3\[nH]c(=O)n(C[C@H](C)C(=O)OC)c(=O)n3Cc3ccc(C)cc3)cc2c1C [Compound R-220]
IC50: 22 nM

COC(=O)C(C)(C)Cn1c(=O)[nH]/c(=N\c2ccc(Oc3cccnn3)c(F)c2)n(Cc2ccc(Cl)cc2)c1=O [Compound R-034]
IC50: 5 nM

O=C(O)C1(Cn2c(=O)[nH]/c(=N\c3ccc(Oc4ncccc4F)cc3)n(Cc3ccc(Cl)cc3)c2=O)CC1 [Compound I-067]
IC50: 11 nM

CCOC(=O)C[C@H](O)Cn1c(=O)[nH]/c(=N\c2ccc(OC(C)C)c(Cl)c2)n(Cc2ccc(Cl)cc2)c1=O [Compound R-171]
IC50: 33 nM

CC(C)(Cn1c(=O)[nH]/c(=N\c2ccc(Oc3cc(O)nc(F)c3)cc2)n(Cc2ccc(Cl)cc2)c1=O)C(=O)O [Compound R-126]
IC50: 10 nM

COC(=O)[C@H](C)[C@H](C)n1c(=O)[nH]/c(=N\c2ccc(Oc3ccc(OC(F)F)cn3)cc2)n(Cc2ccc(Cl)cc2)c1=O [Compound I-071]
IC50: 38 nM

C[C@@H](Cn1c(=O)[nH]/c(=N\c2ccc(OC3CCC3)c(F)c2)n(Cc2ccc(Cl)cc2)c1=O)C(=O)O [Compound R-076]
IC50: 13 nM

O=c1[nH]/c(=N\c2ccc(Oc3ccccn3)cc2)n(Cc2ccc(Cl)cc2)c(=O)n1CCO [Compound R-257, 1-(4-chlorobenzyl)-3-(2-hydroxyethyl)-6-[4-(2-pyridyloxy)phenylimino]-1,3,5-triazinane-2,4-dione]
IC50: 10 nM

CCOC(=O)Cn1c(=O)[nH]/c(=N\c2ccc(Oc3ccccn3)cc2)n(Cc2ccc(F)cc2)c1=O [Compound R-307]
IC50: 13 nM

C[C@@H](C(=O)O)[C@H](C)n1c(=O)[nH]/c(=N\c2ccc(Oc3cnccn3)cc2)n(Cc2ccc(Cl)cc2)c1=O [Compound R-168]
IC50: 17 nM

Cc1ccnc(Oc2ccc(/N=c3\[nH]c(=O)n(C[C@H](C)C(=O)O)c(=O)n3Cc3ccc(Cl)cc3)cc2)c1 [Compound I-080]
IC50: 10 nM

COC(=O)[C@@H](C)Cn1c(=O)[nH]/c(=N\c2ccc(Oc3cccc(CF)n3)cc2)n(Cc2ccc(C)cc2)c1=O [Compound I-266]
IC50: 8 nM

Cc1ccc(Cn2c(=O)n(CCCC(=O)O)c(=O)[nH]/c2=N\c2ccc(Oc3ccc(F)cn3)cc2)cc1 [Compound R-278]
IC50: 15 nM

CCOC(=O)C[C@H](O)Cn1c(=O)[nH]/c(=N\c2ccc3oc(CC)c(C)c3c2)n(Cc2ccc(Cl)cc2)c1=O [Compound R-172]
IC50: 33 nM

COC(=O)[C@@H](C)Cn1c(=O)[nH]/c(=N\c2ccc(Oc3ncc(C)s3)cc2)n(Cc2ccc(C)cc2)c1=O [Compound R-214]
IC50: 6 nM

COC(=O)[C@H](C)[C@H](C)n1c(=O)[nH]/c(=N\c2ccc(Oc3cncc(F)c3)c(C)c2)n(Cc2ccc(Cl)cc2)c1=O [Compound R-186]
IC50: 26 nM

O=C(O)C1(Cn2c(=O)[nH]/c(=N\c3ccc(Oc4ccccn4)cc3)n(Cc3ccc(Cl)cc3)c2=O)CC1 [Compound I-193]
IC50: 8 nM

COC(=O)[C@@H](C)Cn1c(=O)[nH]/c(=N\c2ccc(Oc3ccccn3)cc2)n(Cc2ccc(Cl)cc2)c1=O [Compound I-126]
IC50: 5 nM

O=C(O)CCn1c(=O)[nH]/c(=N\c2ccc(Oc3ncccc3F)cc2)n(Cc2ccc(CF)cc2)c1=O [Compound R-276]
IC50: 42 nM

Cc1nccc(Oc2ccc(/N=c3\[nH]c(=O)n(C[C@H](C)C(=O)O)c(=O)n3Cc3ccc(Cl)cc3)cc2)n1 [Compound R-044]
IC50: 10 nM

COC(=O)CCn1c(=O)[nH]/c(=N\c2ccc(Oc3ccc(Cl)cn3)cc2)n(Cc2ccc(C)cc2)c1=O [Compound R-289]
IC50: 5 nM

O=c1[nH]/c(=N\c2ccc(Oc3ccccn3)cc2)n(Cc2ccc(Cl)cc2)c(=O)n1C[C@H](O)CO [Compound R-235]
IC50: 10 nM

Cc1ccc(Cn2c(=O)n(CC(C)(C)C(=O)O)c(=O)[nH]/c2=N\c2ccc(Oc3ncc(C)s3)cc2)cc1 [Compound R-219]
IC50: 11 nM

COc1ccc(Oc2ccc(/N=c3\[nH]c(=O)n(C[C@H](C)C(=O)O)c(=O)n3Cc3ccc(Cl)cc3)cc2)nc1 [Compound I-079]
IC50: 5 nM

Cc1ccc(Oc2ccc(/N=c3\[nH]c(=O)n(CC(C)(C)C(=O)O)c(=O)n3Cc3ccc(Cl)cc3)cc2F)nn1 [Compound R-181]
IC50: 7 nM

C[C@H](CC(=O)O)n1c(=O)[nH]/c(=N\c2ccc(Oc3cccc(F)n3)cc2)n(Cc2ccc(Cl)cc2)c1=O [Compound I-163]
IC50: 8 nM

Cc1ccc(Cn2c(=O)n(CCC(=O)O)c(=O)[nH]/c2=N\c2ccc(Oc3ccc(Cl)cn3)cc2)cc1 [Compound R-285]
IC50: 6 nM

C[C@@H](C(=O)O)[C@H](C)n1c(=O)[nH]/c(=N\c2ccc(Oc3cncc(F)c3)c(F)c2)n(Cc2ccc(Cl)cc2)c1=O [Compound R-189]
IC50: 8 nM

Cc1ccc(Cn2c(=O)n(C[C@H](C)C(=O)O)c(=O)[nH]/c2=N\c2ccc(Oc3cccc(Cl)n3)cc2)cc1 [Compound I-119]
IC50: 6 nM

COC(=O)C(C)(C)Cn1c(=O)[nH]/c(=N\c2ccc(Oc3ccc(C)cn3)cc2)n(Cc2ccc(Cl)cc2)c1=O [Compound I-055]
IC50: 9 nM

C[C@@H](Cn1c(=O)[nH]/c(=N\c2ccc(Oc3ccccn3)cc2)n(Cc2ccc(Cl)s2)c1=O)C(=O)O [Compound I-273]
IC50: 5 nM

C[C@@H](C(=O)O)[C@H](C)n1c(=O)[nH]/c(=N\c2ccc(Oc3ccnc(C#N)c3)cc2)n(Cc2ccc(Cl)cc2)c1=O [Compound R-212]
IC50: 8 nM

CO[C@@H](Cn1c(=O)[nH]/c(=N\c2ccc(Oc3ccc(F)cn3)cc2)n(Cc2ccc(Cl)cc2)c1=O)C(=O)O [Compound I-124]
IC50: 5 nM

C[C@@H](Cn1c(=O)[nH]/c(=N\c2ccc(Oc3ncccc3C(F)(F)F)cc2)n(Cc2ccc(Cl)cc2)c1=O)C(=O)O [Compound I-032]
IC50: 11 nM

COc1nccc(Oc2ccc(/N=c3\[nH]c(=O)n(C[C@H](C)C(=O)O)c(=O)n3Cc3ccc(Cl)cc3)cc2)n1 [Compound R-061]
IC50: 7 nM

O=c1[nH]/c(=N\c2ccc(Oc3ccccn3)cc2)n(Cc2ccc(Cl)cc2)c(=O)n1CCCOC1CCCCO1 (stereo not drawn) [Compound R-248]
IC50: 5 nM

COC(=O)C(C)(C)Cn1c(=O)[nH]/c(=N\c2ccc(Oc3ncccc3C#N)cc2)n(Cc2ccc(Cl)cc2)c1=O [Compound I-046]
IC50: 19 nM

COC(=O)[C@H](C)[C@H](C)n1c(=O)[nH]/c(=N\c2ccc(Oc3ccc(Cl)cn3)cc2)n(Cc2ccc(C)cc2)c1=O [Compound I-120]
IC50: 9 nM

Cc1ccc(Cn2c(=O)n(CC(C)(C)C(=O)O)c(=O)[nH]/c2=N\c2ccc(Oc3ccc(Cl)cn3)cc2)cc1 [Compound I-101]
IC50: 5 nM

COC(=O)[C@@H](C)Cn1c(=O)[nH]/c(=N\c2ccc(Oc3ncccc3OC(F)F)cc2)n(Cc2ccc(Cl)cc2)c1=O [Compound I-043]
IC50: 117 nM

C[C@@H](Cn1c(=O)[nH]/c(=N\c2ccc(Oc3ccc(OC(F)F)cn3)cc2)n(Cc2ccc(Cl)cc2)c1=O)C(=O)O [Compound I-022]
IC50: 4 nM

COC(=O)C(C)(C)Cn1c(=O)[nH]/c(=N\c2ccc(Oc3ncccc3F)cc2)n(Cc2ccc(Cl)cc2)c1=O [Compound I-007]
IC50: 9 nM
